Results taken from publication PMC7932537, “Quantitative profiling of protease specificity” (PLoS Computational Biology, 2021).

Experiments:
MMP-2 = assay: Substrate phage display with NGS: relative probability (RP) of P3-P1' tetramer clusters; format: biochemical, human; conditions: for relative probability (RP) of matching tetramer: P3-P1' tetramer matching the MS detected MMP2 cleavage sequence, RP_above_4.5; for MMP2 relative probability (RP): MMP2 tetramers from unique substrates, unrounded values; for avg_RP: MMP2 - no binning, average relative probability of the P3-P1' tetramer, redundant tetramers have been averaged out
MMP-9 = assay: as above; format: biochemical, human; conditions: for corresponding MMP9 relative probability (RP): MMP2 tetramers from unique substrates, RP of same tetramer for MMP9
[1] = MMP2, RP of matching P3-P1' tetramer, common set of MMP2-9 selectome, RP above KL threshold
[2] = RP of matching tetramer, common MMP2-9 selectome
[3] = MMP9, RP of matching P3-P1' tetramer, common set of MMP2-9 selectome
[4] = MMP9, RP of the P3-P1' tetramer matching the MS detected cleavage, RP above 4.7, substrate phage display with NGS
[5] = RP of matching tetramer, common MMP2-9 selectome, RP above KL threshold
[6] = RP according to MMP2, P3-P1' tetramer of unique physiologic MMP2 substrates from MEROPS
[7] = RP of the P3-P1' tetramer cluster contained in the hexamer, 200 nM MMP-2, 2 h, 37°C, two rounds of selection
[8] = MMP9, RP of the P3-P1' tetramer contained in the hexamer substrate (substrate phage display, NGS)
[9] = RP of the P3-P1' tetramer, MMP2 substrate phage display/NGS, tetramers of physiologic MEROPS substrates common to MMP2 and MMP9
[10] = RP of the P3-P1' tetramer, MMP9 substrate phage display/NGS, tetramers of physiologic MEROPS substrates common to MMP2 and MMP9
[11] = RP according to MMP9, P3-P1' tetramer of unique physiologic MMP9 substrates from MEROPS

AINI
relative probability (RP) (acc.to MMP2) (MMP-2; [1]): 8.5
relative probability (RP) of matching tetramer (MMP-2): 8.5
relative probability (RP) (acc.to MMP2) (MMP-2; [2]): 8.5
relative probability (RP) (acc.to MMP9) (MMP-9; [3]): 14.08
relative probability (RP) (MMP-9; [4]): 14.08
relative probability (RP) (acc.to MMP9) (MMP-9; [5]): 14.08

PREL
relative probability (RP) (acc.to MMP2) (MMP-2; [2]): 31.95
relative probability (RP) (MMP-9; [4]): 44.67
relative probability (RP) (acc.to MMP9) (MMP-9; [5]): 44.67

LGRF
MMP2 relative probability (RP) (MMP-2): 13.9898
Relative probability (RP) rank (MMP-2; [6]): 3427
relative probability (RP) (MMP-2; [6]): 13.99
corresponding MMP9 relative probability (RP) (MMP-9): 1.477

QQPQAL
relative probability (RP) (MMP-2; [7]): 34.4508
relative probability (RP) (MMP-9; [8]): 48.457

EGPAGL
relative probability (RP) (MMP-2; [7]): 36.0156
relative probability (RP) (MMP-9; [8]): 47.2274

PLSL
avg_RP (MMP-2): 33.5282
relative probability (RP) (acc.to MMP2) (MMP-2; [2]): 33.53
relative probability (RP) (MMP-9; [4]): 48.17
relative probability (RP) (acc.to MMP9) (MMP-9; [5]): 48.17

PLQLQT
relative probability (RP) (MMP-2; [7]): 30.1017
relative probability (RP) (MMP-9; [8]): 45.7856

PQGF
relative probability (RP) (acc.to MMP2) (MMP-2; [9]): 27.05
relative probability (RP) (acc.to MMP9) (MMP-9; [10]): 37.1

TGLT
relative probability (RP) (acc.to MMP2) (MMP-2; [9]): 0.24
Relative probability (RP) rank (MMP-9; [11]): 41284
relative probability (RP) (MMP-9; [11]): 0.21
relative probability (RP) (acc.to MMP9) (MMP-9; [10]): 0.21

EVPQAL
relative probability (RP) (MMP-2; [7]): 34.4508
relative probability (RP) (MMP-9; [8]): 48.457

PPGL [P3-P1' tetramer cluster]
relative probability (RP) (acc.to MMP2) (MMP-2; [9]): 24.36
relative probability (RP) (acc.to MMP9) (MMP-9; [10]): 34.4
relative probability (RP) (MMP-9; tetramer projected onto MMP-9 cleavage sites determined by Prudova et al. (2010)): 34.4

PYEWHS
relative probability (RP) (MMP-2; [7]): 1.984
relative probability (RP) (MMP-9; [8]): 22.8534

VYHQ
corresponding MMP2 relative probability (RP) (MMP-2; MMP9 tetramers from unique substrates, RP of same tetramer for MMP2): 13.6887
MMP9 relative probability (RP) (MMP-9; MMP9 tetramers from unique substrates, unrounded values): 0.1039

LPKPLR
relative probability (RP) (MMP-2; [7]): 33.5622
relative probability (RP) (MMP-9; [8]): 48.2599

PGNR
relative probability (RP) (acc.to MMP2) (MMP-2; [9]): 0.12
relative probability (RP) (acc.to MMP9) (MMP-9; [10]): 0.05

NPQNIR
relative probability (RP) (MMP-2; [7]): 27.128
relative probability (RP) (MMP-9; [8]): 44.0295

DSPQNL
relative probability (RP) (MMP-2; [7]): 32.7851
relative probability (RP) (MMP-9; [8]): 46.8593

IGLM
MMP2 relative probability (RP) (MMP-2): 19.5116
Relative probability (RP) rank (MMP-2; [6]): 1895
relative probability (RP) (MMP-2; [6]): 19.51
relative probability (RP) (acc.to MMP2) (MMP-2; [9]): 19.51
corresponding MMP9 relative probability (RP) (MMP-9): 2.913
Relative probability (RP) rank (MMP-9; [11]): 7888
relative probability (RP) (MMP-9; [11]): 2.91
relative probability (RP) (acc.to MMP9) (MMP-9; [10]): 2.91

HPVSMV
relative probability (RP) (MMP-2; [7]): 30.0644
relative probability (RP) (MMP-9; [8]): 41.2029

GPKG
relative probability (RP) (acc.to MMP2) (MMP-2; [9]): 1.49
relative probability (RP) (acc.to MMP9) (MMP-9; [10]): 2.81

PKKL
relative probability (RP) (acc.to MMP2) (MMP-2; [9]): 8.1
relative probability (RP) (acc.to MMP9) (MMP-9; [10]): 23.95

PRGY
relative probability (RP) (acc.to MMP2) (MMP-2; [1]): 34.02
relative probability (RP) of matching tetramer (MMP-2): 34.02
relative probability (RP) (acc.to MMP2) (MMP-2; [2]): 34.02
relative probability (RP) (acc.to MMP9) (MMP-9; [3]): 46.79
relative probability (RP) (MMP-9; [4]): 46.79
relative probability (RP) (acc.to MMP9) (MMP-9; [5]): 46.79

VHPSAV
relative probability (RP) (MMP-2; [7]): 29.6865
relative probability (RP) (MMP-9; [8]): 36.5372

SDEL
relative probability (RP) (acc.to MMP2) (MMP-2; [9]): 0
relative probability (RP) (acc.to MMP9) (MMP-9; [10]): 0

PLTL
avg_RP (MMP-2): 24.2603
relative probability (RP) (acc.to MMP2) (MMP-2; [1]): 24.26
relative probability (RP) of matching tetramer (MMP-2): 24.26
relative probability (RP) (acc.to MMP2) (MMP-2; [2]): 24.26
relative probability (RP) (acc.to MMP9) (MMP-9; [3]): 41.2
relative probability (RP) (MMP-9; [4]): 41.2
relative probability (RP) (acc.to MMP9) (MMP-9; [5]): 41.2

PQPSEL
relative probability (RP) (MMP-2; [7]): 31.5156
relative probability (RP) (MMP-9; [8]): 41.3266

PQPLDL
relative probability (RP) (MMP-2; [7]): 30.3595
relative probability (RP) (MMP-9; [8]): 47.1306

VGGL
relative probability (RP) (acc.to MMP2) (MMP-2; [1]): 26.45
relative probability (RP) of matching tetramer (MMP-2): 26.45
relative probability (RP) (acc.to MMP2) (MMP-2; [2]): 26.45
relative probability (RP) (acc.to MMP9) (MMP-9; [3]): 9.44
relative probability (RP) (MMP-9; [4]): 9.44
relative probability (RP) (acc.to MMP9) (MMP-9; [5]): 9.44
